In one assay the target is T1, GR (Homo sapiens, UniProt P04150).
T1 construct: expressed in transfected cells; host or cells: AD293
T1 sequence (P04150 1-777): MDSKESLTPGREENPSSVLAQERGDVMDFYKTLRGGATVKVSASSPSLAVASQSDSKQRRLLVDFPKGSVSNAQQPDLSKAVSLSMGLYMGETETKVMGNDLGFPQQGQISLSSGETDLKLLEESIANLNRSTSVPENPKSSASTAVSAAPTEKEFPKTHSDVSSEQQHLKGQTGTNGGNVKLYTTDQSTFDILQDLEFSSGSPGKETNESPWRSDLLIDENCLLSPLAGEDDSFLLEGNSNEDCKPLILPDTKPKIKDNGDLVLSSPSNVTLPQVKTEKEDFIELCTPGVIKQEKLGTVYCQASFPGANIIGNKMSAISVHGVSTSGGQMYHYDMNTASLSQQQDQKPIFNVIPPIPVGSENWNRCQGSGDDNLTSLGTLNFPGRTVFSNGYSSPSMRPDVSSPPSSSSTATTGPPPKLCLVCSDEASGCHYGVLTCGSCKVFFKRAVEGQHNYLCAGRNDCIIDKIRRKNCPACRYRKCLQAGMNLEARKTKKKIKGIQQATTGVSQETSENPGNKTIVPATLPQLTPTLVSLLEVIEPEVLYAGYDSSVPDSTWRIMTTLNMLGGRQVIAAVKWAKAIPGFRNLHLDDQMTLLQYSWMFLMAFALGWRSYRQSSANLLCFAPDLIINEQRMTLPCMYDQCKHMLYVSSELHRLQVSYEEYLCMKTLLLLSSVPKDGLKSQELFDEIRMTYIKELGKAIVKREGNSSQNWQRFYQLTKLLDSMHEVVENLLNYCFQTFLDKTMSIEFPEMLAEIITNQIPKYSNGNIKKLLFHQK
In words: NF-κB-Luc repression reporter assay in AD293 cells. In kind it is cell-based. To be noted: TNFα 2 ng ml^-1. Here is the method: Similar to previous reports, for induction 100 ng pHHLuc (MMTV-Luc) plasmid, 0.1 ng pRShGR together with 5 ng phRGtkRenilla were transfected by X-tremeGENE 9 (Roche) into AD293 cells per well in 24-well plate. For transrepression, 10 ng AP-1-Luc or 10ng pNF-κB-luc, 100 ng pRShGR and 5 ng phRGtkRenilla were transfected into AD293 cells per well. We used the same transfection protocol for the MR and PR assays, except of the use of 0.1 ng MR or PR plasmid to substitute GR. One day after transfection, for induction, cells were directly treated by steroids for 16 h; for repression, cells were treated with either PMA at 0.6 ng ml^–1 (for AP-1 reporter) or TNFα at 2 ng ml^–1 (for NF-κB reporter), together with various steroids. Cells were collected by addition of 1× Passive Lysis Buffer (Promega, Madison, WI, USA), and luciferase activity was assayed by the Dual-Glo Luciferase system (Promega). Data were plotted as firefly luciferase activity normalized to Renilla luciferase activity in Relative Luciferase Units.
Error bars indicate SD, n=3.
For orientation: Reporter assays use an easily measured gene product as a stand-in for the process of interest.

In another assay the test system is OVA-induced asthma. In words: OVA-induced mouse asthma model. In kind it is in vivo, Balb/c mice. Particulars: for % repression of AHR: ACH challenge 4 mg kg^-1. Here is the method:
As described before, 7–9-week-old female Balb/c mice (Taconic) were sensitized on days 0, 7 and 14 by i.p. injection of 50 μg OVA/1 mg alum in a total of 200 μl saline. Control mice received an equal volume of alum only. Mice were lightly anesthetized by isoflurane inhalation and challenged with intranasal OVA (100 μg in 30 μl saline) or saline on days 21–23, and were i.p. injected with different steroids. Twenty-four hours after the last challenge and treatment, pulmonary resistance was measured in response to a range of concentrations of intravenous acetylcholine using the forced oscillation technique with the FlexiVent system (SCIREQ) as previously described. Serum samples were analyzed for OVA-specific IgE using an ELISA (BD Biosciences, clone R35-118). Total and differential cell counts were determined by hemocytometer and by light microscopic evaluation of more than 300 cells per slide as previously described. After lavage, lungs were inflated with 10% buffered formalin to 25 cm H2O and transferred to 10% buffered formalin. Sections (5 μm) were stained with H&E for semi-quantitative assessment of inflammation and PAS for evaluation of mucus production. To quantify inflammation, H&E-stained lung sections were de-identified for blinding and scored for peribronchial and perivascular inflammatory cell infiltration: grade 0, no infiltration; grade 1, <25% of examined area; grade 2, 25–50%; grade 3, 51–75%; and grade 4, >75%. To quantify goblet cell hyperplasia, PAS stained lung sections were de-identified for blinding and scored for the percentage of PAS positive cells among airway epithelial cells: grade 0: none; grade 1 <25% of airway epithelial cells; grade 2, 25–50%; grade 3, 51–75%; and grade 4, >75%.

Values joined by “and” are separate entries in the source; they are usually repeats but may differ in a detail not shown here. Identical values can stand only once.

For `CON(C)C(=O)C1(OC(=O)c2ccco2)C(C)CC2C3CC(F)C4=Cc5c(cnn5-c5ccccc5)CC4(C)C3(F)C(O)CC21C` (stereo not drawn) [VSGC12], the 50% inhibitory concentration (IC50) – broadly, the concentration that gives 50% inhibition – against GR was found to be 80 pM. Moreover, the “% repression of total differentiated cells” value in the assay on OVA-induced asthma (0.0625 mg/kg) worked out at 37%; in the assay on OVA-induced asthma (0.125 mg/kg) it was 60%; in the assay with OVA-induced asthma (0.25 mg/kg) it was 88%; in the assay with OVA-induced asthma (1 mg/kg, saline 100, OVA+DMSO 0), 99%. Also, the “% repression of AHR” value was 50% in the assay on OVA-induced asthma (0.0625 mg/kg); > 95% and 95% in the assay on OVA-induced asthma (0.25 mg/kg); 98% with OVA-induced asthma (1 mg/kg, OVA+DMSO 0, saline 100). Besides, the “histology score (hematoxylin and eosin and PAS staining)” value in the assay with OVA-induced asthma (0.25 mg kg^-1) was “much lower score than 0.25 mg kg^–1 FF in both hematoxylin and eosin and PAS staining”. Further, in the assay with OVA-induced asthma (1 mg kg^-1 i.p.), the “infiltration of immune responsive cells into the lungs (total and differential cell count)” value is “strongly repressed the infiltration of immune responsive cells into the lungs”. Moreover, the “repression of airway hyper-responsiveness (AHR)” value in the assay with OVA-induced asthma (1 mg kg^-1 i.p., Balb/c mice) was “robustly repressed AHR to the basal level”. In addition, the “histology score, PAS staining” value in the assay on OVA-induced asthma (1 mg kg^-1 i.p., grade 0-4) was determined as 0.25. Besides, in the assay on OVA-induced asthma (1 mg kg^-1 i.p., grade 0-4), the “histology score, hematoxylin and eosin staining” value was “almost zero”. For the same molecule, the “minimal dose to effectively repress AHR (minimal effective dose)” value in the assay on OVA-induced asthma (AHR repression >50%, i.p.) is 0.0625 mg kg^–1. The OVA-IgE levels entry with OVA-induced asthma (lower doses (0.25, 0.125, 0.0625 mg kg^-1)) is on record as “unexpectedly higher than the vehicle control”.

The values above are taken from article PMC4822341 (Cell Discovery, 2015).
